{"source": "patent US10466233B2", "about": "“Genetically encoded probe for quantification of lactate and methods for quantifying metabolic rates and lactate transport” (CENTRO DE ESTUDIOS CIENTIFICOS DE VALDIVIA, priority 2012, dated 2019)", "key": {"[1]": {"system": "oxidative phosphorylation in astrocytes", "assay": "Rate of lactate production on inhibition of oxidative phosphorylation, measured with the lactate sensor", "settings": "Mus musculus, Astrocyte, read-out: fold increase in the rate of lactate production", "experimental": "(§5) Animals and Cell Cultures. Animals used were mixed F1 male mice (C57BL/6J×CBA/J), kept in an animal room under Specific Pathogen Free (SPF) conditions at a room temperature of 20±2° C., in a 12/12 h light/dark cycle with free access to food and water. […] Mixed cortical cultures of neuronal and glial cells (1-3 day-old neonates) were prepared as described (Loaiza et al., 2003). […] Cultures were transfected at 60% confluence using Lipofectamine 2000 (Gibco) or alternatively, exposed to 5×10^6 PFU of Ad lactate sensor of the present invention (Vector Biolab), and studied after 24-72 h.\n(§6) Fluorescence Measurements. […] Cells were imaged at room temperature (22-25° C.) in a 95% air/5% CO2-gassed solution of the following composition (in mM): 112 NaCl, 1.25 CaCl2, 1.25 MgSO4, 1-2 glucose, 10 HEPES, 24 NaHCO^3, pH 7.4, with 3 mM KCl (astrocytes) or 5 mM KCl (HEK and T98G) using an upright Olympus FV1000 Confocal Microscope equipped with a 20× water immersion objective (N.A. 1.0) and a 440 nm solid-state laser. Alternatively, cells were imaged with an Olympus IX70 or with an Olympus BX51 microscope equipped with a 40× oil-immersion objective (NA 1.3) or with a 20× water-immersion objective (NA 0.95). […]"}, "[2]": {"molecular_target": "T1, lactate sensor Variant 7: mTFP - full length L1dR from E. coli, no linkers - Venus, SEQ ID NO 7 (Escherichia coli, UniProt P0ACL7)", "T1 construct": "His tag (inferred from the nickel-resin purification); made in house; host or cells: E. coli BL21 (DE3)", "assay": "Fluorescence ratio (FRET) dose-response of purified lactate nanosensor to lactate", "type": "binding", "settings": "millimolar levels", "protocol": "Also surprising was the observation that the DNA-binding domain is important for the FRET change, and that the sensors with no linkers are more responsive (FIG. 4). […] It contains the full length L1dR from E. coli and no linkers. […] The affinity constant of L1dR for L-lactate is not known. […] This unique property of L1dR confers the lactate sensor the desirable ability of reporting across four orders of magnitude (from 1 μM to 10 mM), instead of the two orders afforded by one-site sensors.\n(§1) Protein Purification. Plasmid constructs were transformed into E. coli BL21 (DE3). A single colony was inoculated in 100 ml of LB medium with […] ampicillin (without IPTG) and shaken in the dark for 2-3 days. Cells were collected by centrifugation at 5000 rpm (4° C.) for 10 min and disrupted by sonication (Hielscher Ultrasound Technology) in 5 mL of Tris-HCl buffer pH 8.0. A cell-free extract was obtained by centrifugation at 10,000 rpm (4° C.) for 1 hour and filtering of the supernatant (0.45 μm). Proteins were purified using a Nickel resin (His Bin® from Novagen) as recommended by the manufacturer. Eluted proteins were quantified using the Biuret method and stored at −20° C. in 20% glycerol.\n(§2) Fluorescence Measurements."}, "MCT [3]": {"system": "MCT", "assay": "Intracellular lactate in HEK293 cells after MCT blockage", "type": "cell-based", "protocol": "(§3) Animals and Cell Cultures.\nas §2\nThe diagram in FIG. 14 illustrates how the intracellular concentration of lactate is determined by the dynamic balance between pyruvate production by glycolysis, pyruvate consumption by mitochondria and lactate exchange through MCTs. In cells that are exporting lactate, perturbation of the steady state by addition of a blocker of the MCT is expected to cause lactate accumulation. In cells that are net lactate importers, an MCT-blocker is expected to cause depletion in intracellular lactate. In both cases, the rate of change will be equal to the rate of lactate production or consumption. […] Phloretin is also known to inhibit GLUT glucose transporters, however this should not compromise the analysis of astrocytes, neurons, or the cell lines so far characterized, which maintain resting intracellular glucose at levels well above the Km of hexokinase (Bittner et al., 2010; Takanaga et al., 2008; Fehr et al., 2003). […]\nTo further validate methods 2 and 3, the blockers were applied sequentially and a mathematical model based on the kinetic model described in FIG. 14 was fitted to the data. The responses of intracellular lactate to transient inhibitions of the PT with 4-CIN (200 μM) and the MCTs with phloretin (50 μM) were measured in the same HEK293 cell in the presence of 25 mM glucose and no extracellular lactate. […]"}, "[4]": {"molecular_target": "T2, mitochondrial pyruvate transporter (PT) (Homo sapiens, UniProt O95563+Q9Y5U8)", "T2 construct": "endogenous in cells; host or cells: HEK293 cells (ATCC) expressing the lactate sensor", "T2 sequence (Q9Y5U8 1-109)": "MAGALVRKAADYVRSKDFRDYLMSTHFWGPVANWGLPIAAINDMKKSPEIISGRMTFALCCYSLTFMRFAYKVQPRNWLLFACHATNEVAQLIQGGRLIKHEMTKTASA", "T2 sequence (O95563 1-127)": "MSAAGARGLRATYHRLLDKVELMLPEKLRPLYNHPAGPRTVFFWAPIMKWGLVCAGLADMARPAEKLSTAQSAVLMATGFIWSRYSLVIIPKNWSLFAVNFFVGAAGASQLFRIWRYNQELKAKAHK", "assay": "Intracellular lactate in HEK293 cells after inhibition of the mitochondrial pyruvate transporter", "type": "cell-based", "settings": "concentration that does not affect MCT function", "text": "as §3, §2\nBecause the reaction catalyzed by LDH is relatively fast, the cytosolic pools of lactate and pyruvate are tightly linked, and variations in pyruvate are faithfully mimicked by lactate. Accordingly, perturbation of the steady-state by addition of a blocker of the mitochondrial pyruvate transporter (PT) will cause intracellular lactate accumulation at a rate equal to the rate of pyruvate consumption by mitochondria.\nTo further validate methods 2 and 3, the blockers were applied sequentially and a mathematical model based on the kinetic model described in FIG. 14 was fitted to the data. The responses of intracellular lactate to transient inhibitions of the PT with 4-CIN (200 μM) and the MCTs with phloretin (50 μM) were measured in the same HEK293 cell in the presence of 25 mM glucose and no extracellular lactate. The straight lines represent the slopes of the lactate increases fitted by linear regression during the first minute (4-CIN) or during the whole exposure (phloretin). The red line represents the best fit of the kinetic model to the data, as described in Experimental Procedures, assuming full inhibition of the transporters. […] PT and lactate release rates respectively estimated from the initial slopes of lactate increase after transporter inhibition were over 90% of those estimated by modeling. […]"}, "[5]": {"system": "oxidative phosphorylation", "settings": "astrocytes, 5 mM", "experimental": "as §5, §6"}, "MCT [6]": {"system": "MCT", "assay": "Initial rate of astrocytic lactate uptake measured with the lactate sensor", "type": "cell-based, mice", "settings": "1 mM lactate, 50 μM blocker, astrocytes", "text": "as §3, §2\n(§4) By controlling the exchange of lactate between cells and the interstitial space, MCTs are nodal points of tissue metabolism. MCTs catalyze the stoichiometric translocation of lactate and a proton and their activity can be measured with single-cell resolution by monitoring intracellular pH with a dye such as BCECF. However, 99.9% of protons are bound to proteins, phospholipids and other sites, and are exchanged through many transporters other than the MCT, which makes pH an imperfect proxy for lactate. To compare the performances of the lactate sensor of the present invention and BCECF, we chose astrocytes. When expressed in astrocytes, the lactate sensor of the present invention responded well to extracellular lactate, allowing real-time monitoring of lactate influx and efflux (FIG. 13). […] In contrast, exposure to extracellular lactate produced only a small change in intracellular pH as detected with BCECF (FIG. 15). […] Lactate may also be transported independently of protons through gap junctions (Rouach et al., 2008) and possibly through connexin hemichannels and pannexin channels, fluxes that are invisible to pH measurements and that may now be measured with the present invention."}, "MCT [7]": {"system": "MCT", "assay": "Intracellular lactate in astrocytes after MCT blockage", "type": "cell-based, mice", "settings": "50 μM", "protocol": "as §3, §2\nThe diagram in FIG. 14 illustrates how the intracellular concentration of lactate is determined by the dynamic balance between pyruvate production by glycolysis, pyruvate consumption by mitochondria and lactate exchange through MCTs. In cells that are exporting lactate, perturbation of the steady state by addition of a blocker of the MCT is expected to cause lactate accumulation. In cells that are net lactate importers, an MCT-blocker is expected to cause depletion in intracellular lactate. In both cases, the rate of change will be equal to the rate of lactate production or consumption. […] Phloretin is also known to inhibit GLUT glucose transporters, however this should not compromise the analysis of astrocytes, neurons, or the cell lines so far characterized, which maintain resting intracellular glucose at levels well above the Km of hexokinase (Bittner et al., 2010; Takanaga et al., 2008; Fehr et al., 2003). In these cells, glucose consumption remains constant for several minutes in the presence of glucose transporter blockers like phloretin or cytochalasin B (Bittner et al., 2010). Thus, during the first few minutes of phloretin application, the rate of lactate accumulation is not diminished by lack of glucose supply."}, "[8]": {"system": "monocarboxylate transporter (MCT) in astrocytes", "assay": "Astrocytic lactate uptake via MCT monitored with the lactate sensor", "type": "cell-based, mouse", "settings": "1 mM lactate", "text": "as §3, §2, §4"}, "[9]": {"assay": "Fluorescence ratio (mTFP/Venus) response of purified lactate sensor to lactate in vitro", "type": "binding", "settings": "comparison of sensor variants (FIG. 4)", "protocol": "as §1, §2"}}, "data": [{"molecule": "[N-]=[N+]=[N-]", "note": "[sodium azide]", "values": [{"measurement": "fold induction at 5000 µM", "setting": "[1]", "value": "26 ± 4"}]}, {"molecule": "OC[C@H]1OC(O)[C@H](O)[C@@H](O)[C@@H]1O", "note": "(some centres unmarked) [glucose]", "values": [{"measurement": "change in FRET (specificity)", "setting": "[2]", "value": "only lactate induced a significant change in FRET"}]}, {"molecule": "N#CC(=Cc1ccc(O)cc1)C(=O)O", "note": "[Variant 4-CIN, α-Cyano-4-hydroxycinnamate]", "values": [{"measurement": "block of MCTs", "setting": "MCT [3]; HEK293 cell, 200 μM, 25 mM glucose, no extracellular lactate", "value": "did not block MCTs to a significant extent"}, {"measurement": "effect on intracellular lactate", "setting": "[4]", "value": "led to an increase in intracellular lactate"}]}, {"molecule": "[N-]=[N+]=[N-].[Na+]", "note": "[azide, sodium azide]", "values": [{"measurement": "increase in the rate of lactate production", "setting": "[5]", "value": "26±4", "unit": "fold"}]}, {"molecule": "O=C(CCc1ccc(O)cc1)c1c(O)cc(O)cc1O", "note": "[phloretin]", "values": [{"measurement": "inhibition of initial rate of astrocytic lactate uptake", "setting": "MCT [6]", "value": "96±1", "unit": "%"}, {"measurement": "effect on intracellular lactate", "setting": "MCT [3]; HEK293 cells, 50 μM", "value": "caused the expected increase in intracellular lactate"}, {"measurement": "effect on intracellular lactate", "setting": "MCT [7]", "value": "caused the expected increase in intracellular lactate"}]}, {"molecule": "C[C@H](O)C(=O)O", "note": "[lactate]", "values": [{"measurement": "change in FRET (specificity)", "setting": "[2]", "value": "only lactate induced a significant change in FRET"}, {"measurement": "initial rate of astrocytic uptake of lactate", "setting": "[8]", "value": "1.6 ± 0.5", "unit": "µM/s"}]}, {"molecule": "Variant 7: Most responsive FRET lactate sensor: mTFP, full length L1dR from E. coli, no linkers, Venus; SEQ ID NO 7", "values": [{"measurement": "change in fluorescence ratio in response to lactate", "setting": "[9]", "value": "most responsive variant"}]}]}
